The text below walks through data of patent US8487072B2, “Compounds for stimulating P-glycoprotein function and uses thereof” (Angiochem Inc., priority 2006, dated 2013).

In data set [1] the test system is P-gp. Nature of the data set: Brain uptake of [3H]-Taxol in vivo (P-gp efflux transport at the blood brain barrier). More on the design: species or system mice. The settings on record: peptide 20 μg/ml; for reduction of [3H]-Taxol in the capillaries and in the parenchyma relative to total brain: [3H]-Taxol perfused 5 minutes; for reduction of Taxol passage in the total brain vs control mice: [3H]-Taxol perfused through right jugular vein for 5 minutes, total brain (FIG. 2). How it is done:
The effect of compounds on P-gp efflux transport activity was investigated in vivo. For this purpose, the brain uptake of [^3H]-Taxol, a specific substrate of P-gp, was measured. [^3H]-Taxol was perfused into the brain through the right jugular vein for 5 minutes in the presence or absence of pepCav or pepPgp at a concentration of 20 μg/ml. Radioactivity of [^3H]-Taxol was analyzed in the total brain, the capillary and the parenchyma.

Data set [2] concerns human umbilical vein endothelial cells (HUVEC). As to the kind of experiment: HUVEC tube formation on Matrigel (angiogenesis in vitro). Type of data set: cell-based. The conditions noted are these: 40 μg/ml, 18 hours (FIG. 4A). How it is done:
The effect of these compounds on angiogenesis was evaluated in vitro using human umbilical vein endothelial cells (HUVEC) tube formation on Matrigel. Following transfections, cells were trypsinized and 2.5×10^4 cells were seeded on Matrigel. After cellular adhesion, the medium was removed and 100 μl fresh medium was added with or without 40 μg/ml of either pepCav or pepPgp. Tube formation was evaluated after 18 hours. After incubation, tubular structures were visualized at 60× magnification using a Nikon TMS-F microscope and Northern Eclipse Software.

The test system of a further data set is MDCK-MDR1 cells. As to the kind of experiment: Cell migration of MDCK-MDR1 cells, Transwell filters. Type of data set: cell-based, canine. The conditions noted are these: 20 μg/ml, Transwell 8 μm precoated with 0.15% gelatin, 10% serum as chemoattractant (FIGS. 3A, 3B). How it is done: The effect of both compounds on cell migration, was determined by the migration of MDCK-MDR1 cells using Transwell filters (Costar; 8 μm pore size) precoated with 0.15% gelatin. Briefly, 1×10^5 cells were resuspended in 100 μl of serum-free medium with or without compounds (20 μg/ml). The lower chamber of the Transwell contained 10% serum used as chemoattractant. Cell migration was determined using a Nikon TMS-F microscope and Northern Eclipse Software. As observed in FIGS. 3A and 3B, pepPgp and pepCav inhibited cells migration of MDCK-MDR1 by 30% and 80%, respectively, as compared to the control.

The next data set deals with angiogenesis. As to the kind of experiment: Matrigel plug assay (angiogenesis in vivo), hemoglobin content. The settings on record: Matrigel with heparin and bFGF under the skin of mice, plug removed after one week; 100 μg/ml in the method, 40 μg/ml in the result sentence (FIG. 4B). How it is done:
The effect of these compounds on angiogenesis was evaluated in vivo using the Matrigel plug assay. Briefly, Matrigel containing heparin and bFGF was injected under the skin of mice in the presence or absence of 100 μg/ml pepCav and pepPgp. The Matrigel plug was removed after one week. Hemoglobin content in the Matrigel plugs, which corresponds to the vessels formed, was measured.

Data set [3] addresses P-gp (Homo sapiens, UniProt P08183).

Where two headings read alike, the source gives them in different places.

Chain of P-gp (Homo sapiens, UniProt P08183) (P08183 whole entry): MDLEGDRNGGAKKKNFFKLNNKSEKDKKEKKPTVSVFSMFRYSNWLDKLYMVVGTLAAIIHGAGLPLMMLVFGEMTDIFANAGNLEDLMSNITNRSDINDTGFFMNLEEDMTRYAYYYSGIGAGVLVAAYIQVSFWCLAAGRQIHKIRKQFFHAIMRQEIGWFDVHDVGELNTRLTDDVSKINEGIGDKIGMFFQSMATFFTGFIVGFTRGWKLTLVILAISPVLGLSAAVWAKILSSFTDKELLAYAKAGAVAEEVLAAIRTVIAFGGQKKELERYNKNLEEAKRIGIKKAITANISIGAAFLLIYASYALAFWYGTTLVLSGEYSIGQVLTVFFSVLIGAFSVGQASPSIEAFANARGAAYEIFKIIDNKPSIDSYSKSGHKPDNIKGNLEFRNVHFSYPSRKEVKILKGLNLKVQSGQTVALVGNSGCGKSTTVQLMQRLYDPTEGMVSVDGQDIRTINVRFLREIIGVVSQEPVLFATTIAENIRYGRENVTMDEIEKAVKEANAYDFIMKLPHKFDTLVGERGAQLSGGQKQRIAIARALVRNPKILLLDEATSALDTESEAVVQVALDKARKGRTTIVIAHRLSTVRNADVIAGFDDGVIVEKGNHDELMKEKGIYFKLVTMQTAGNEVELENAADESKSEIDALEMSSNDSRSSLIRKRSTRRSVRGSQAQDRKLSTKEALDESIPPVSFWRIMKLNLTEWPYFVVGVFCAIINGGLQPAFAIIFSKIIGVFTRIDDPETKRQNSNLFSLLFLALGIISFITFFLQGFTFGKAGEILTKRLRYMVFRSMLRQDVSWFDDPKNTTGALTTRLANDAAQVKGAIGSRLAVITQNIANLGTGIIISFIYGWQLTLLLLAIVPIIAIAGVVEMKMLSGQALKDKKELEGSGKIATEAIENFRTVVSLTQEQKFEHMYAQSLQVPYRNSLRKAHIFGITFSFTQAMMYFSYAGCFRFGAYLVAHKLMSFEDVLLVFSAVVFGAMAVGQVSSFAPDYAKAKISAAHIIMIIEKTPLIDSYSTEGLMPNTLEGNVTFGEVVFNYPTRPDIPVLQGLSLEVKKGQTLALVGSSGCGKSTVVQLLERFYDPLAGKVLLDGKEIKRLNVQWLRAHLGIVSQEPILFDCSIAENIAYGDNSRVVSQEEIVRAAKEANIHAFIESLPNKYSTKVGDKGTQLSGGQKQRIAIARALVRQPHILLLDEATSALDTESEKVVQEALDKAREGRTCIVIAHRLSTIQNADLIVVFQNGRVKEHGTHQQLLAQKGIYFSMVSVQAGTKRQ

For DGIWKASFTTFTVTKYWFYR [pepCav], in the data set on P-gp [1], the “reduction of [3H]-Taxol in the capillaries and in the parenchyma relative to total brain” value is “similar”; the “reduction of Taxol passage in the total brain vs control mice” value was found to be 50%. For the same sequence, the “reduction of capillary-like structure formation” value in data set [2] is on record as 75%. For the same sequence, the “inhibition of cell migration of MDCK-MDR1 vs control” value with MDCK-MDR1 cells is 80%. Besides, the “reduction of hemoglobin content in Matrigel plug vs control (bFGF alone)” value with angiogenesis was 25%. In addition, the “accumulation of [3H]-vinblastine as a function of time” value with P-gp [3] (MDCK-MDR1 cells, 20 μg/ml peptide, different times following treatment (FIG. 1A)) is on record as “decreased as a function of time”. Moreover, in the data set with P-gp [3] (MDCK-MDR1 cells, increasing concentrations (FIG. 1B)), the “[3H]-vinblastine accumulation with increasing concentrations of compound” value is “reduced”.
Take VFSMFRYSNWLDK [pepPgp]: in the data set with P-gp [1], the “reduction of [3H]-Taxol in the capillaries and in the parenchyma relative to total brain” value is listed as “similar”; the “reduction of Taxol passage in the total brain vs control mice” value amounted to 30%. Moreover, the “reduction of capillary-like structure formation” value in data set [2] was determined as 40%. Also, the “inhibition of cell migration of MDCK-MDR1 vs control” value with MDCK-MDR1 cells came to 30%. In the data set with angiogenesis, the “reduction of hemoglobin content in Matrigel plug vs control (bFGF alone)” value was 40%. Besides, in the data set with P-gp [3], the “[3H]-vinblastine accumulation with increasing concentrations of compound” value was “reduced”.
